# Earlier results in patent publication US9084838B2, “Feminine care absorbent article for use in warm climates” (Kimberly-Clark Worldwide, Inc., priority 2011, dated 2015).
# Conditions: at 25° C.
smiles,measurement,value
O=C(O)CC(O)(CC(=O)O)C(=O)O [citric acid],pKa2,4.76
same,pKa3,6.40
